Marks after values point to notes of the source that are not given here.
Assays:
[1] = target: cloned mouse KCNQ2 (mKCNQ2) (Mus musculus, UniProt Q9Z351); assay: KCNQ oocyte two-electrode voltage clamp, KCNQ2-mediated outward current; format: cell-based; settings: expressed as percent increase over KCNQ current in controls, Xenopus oocytes
Description: The ability of compounds described in the present invention to open KCNQ channels and increase whole-cell outward (K^+) KCNQ-mediated currents was assessed under voltage-clamp conditions by determining their ability to increase cloned mouse KCNQ2 (mKCNQ2)-mediated, heteromultimeric KCNQ2/3 (KCNQ2/3)-mediated, and human KCNQ5 (hKCNQ5)-mediated outward currents heterologously expressed in Xenopus oocytes. Oocytes were prepared and injected using standard techniques; each oocyte was injected with approximately 50 nl of mKCNQ2, or hKCNQ5 cRNA. In the case of mKCNQ2/3 heteromultimeric channel expression, equal amounts (25-50 nL) of each cRNA were co-injected. […] Following injection, oocytes were maintained at 17° C. in ND96 medium consisting of (in mM): NaCl, 90; KCl, 1.0; CaCl2, 1.0; MgCl2, 1.0; HEPES, 5.0; pH 7.5. Horse serum (5%) and penicillin/streptomycin (5%) were added to the incubation medium. Recording commenced 2-6 days following mRNA injection. Prior to the start of an experiment oocytes were placed in a recording chamber and incubated in Modified Barth's Solution (MBS) consisting of (in mM): NaCl, 88; NaHCO3, 2.4; KCl, 1.0; HEPES, 10; MgSO4, 0.82; Ca(NO3)2, 0.33; CaCl2, 0.41; pH 7.5.
Oocytes were impaled with electrodes (1-2 MΩ) and standard 2-electrode voltage clamp techniques were employed to record whole-cell membrane currents. Recordings were accomplished using standard two-electrode voltage clamp techniques [Stuhmer et al., Methods in Enzymology, Vol. 207: 319-339 (1992)]. Voltage-clamp protocols typically consisted of a series of voltage steps 1-5 sec duration, in +10 mV steps from a holding potential of −90 mV to a maximal potential of +40 mV; records were digitized at 5 kHz and stored on a computer using pclamp data acquisition and analysis software (Axon Instruments). […]

[2] = tested on: SSS-stimulated trigeminal field response; assay: In vivo electrophysiology: superior sagittal sinus (SSS)-stimulated trigeminal field response model of migraine; parameters: species or system rat
Excerpt: Male Long-Evans rats (Harlan, 250-400 g) were used in the experiments described in this example. Prior to testing, rats were allowed access to food and water ad libitum and were maintained on a 12:12-h light/dark cycle. Rats were group housed in an Association for Assessment and Accreditation of Laboratory Animal Care (AAALAC) accredited facility and cared for in strict compliance with all applicable regulations.
Rats were anesthetized with 1.2 g/kg i.p. urethane (#U-2500, Sigma Chemical Company, St. Louis, Mo.) and given supplemental urethane as needed. […]
Stimulated field responses were recorded in the trigeminal nucleus caudalis using Teflon coated stainless-steel microelectrodes (5 megaohms impedance, Frederick Haer, Brunswick, Me.) and amplified and filtered (0.1 Hz-10 kHz) using a differential amplifier (#IsoDAM8, World Precision Instruments, Sarasota, Fla.). […]
Three baseline measures (i.e., 100% of control), each consisting of 100 evoked trigeminal field potentials, were sampled prior to drug injection. […] Following injection of test substances, data were sampled for 1 hour, averaged into 5 minute bins (90 evoked potentials) and expressed as a percent change from average baseline values for the purposes of statistical analysis. Data were analyzed using repeated measures analyses of variance comparing vehicle and drug effects. […]

cloned mouse KCNQ2 (mKCNQ2), sequence (Q9Z351 whole entry): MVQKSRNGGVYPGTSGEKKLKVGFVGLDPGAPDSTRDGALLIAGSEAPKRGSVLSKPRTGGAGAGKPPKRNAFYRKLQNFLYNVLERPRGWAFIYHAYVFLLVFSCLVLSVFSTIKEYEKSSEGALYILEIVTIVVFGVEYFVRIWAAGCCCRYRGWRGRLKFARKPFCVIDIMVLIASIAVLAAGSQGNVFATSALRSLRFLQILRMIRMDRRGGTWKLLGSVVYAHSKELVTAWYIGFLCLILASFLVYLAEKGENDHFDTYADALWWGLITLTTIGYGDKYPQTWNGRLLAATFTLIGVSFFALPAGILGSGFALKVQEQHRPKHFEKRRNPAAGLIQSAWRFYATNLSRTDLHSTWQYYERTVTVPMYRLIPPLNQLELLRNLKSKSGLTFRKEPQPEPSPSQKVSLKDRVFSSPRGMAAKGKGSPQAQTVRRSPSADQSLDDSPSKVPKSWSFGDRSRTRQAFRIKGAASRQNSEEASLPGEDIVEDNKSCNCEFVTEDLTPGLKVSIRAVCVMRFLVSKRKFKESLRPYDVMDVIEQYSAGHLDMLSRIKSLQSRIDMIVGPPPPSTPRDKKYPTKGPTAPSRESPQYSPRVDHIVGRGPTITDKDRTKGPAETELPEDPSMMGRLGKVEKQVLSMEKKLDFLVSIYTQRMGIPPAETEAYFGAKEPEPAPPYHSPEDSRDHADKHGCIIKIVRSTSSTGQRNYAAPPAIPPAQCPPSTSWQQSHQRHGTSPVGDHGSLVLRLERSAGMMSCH

SMILES: O=C(NCc1ccc(C(F)(F)F)cc1)c1cnc(NCc2ccccc2)nc1N1CCCC1 [Example 37, 2-(Phenylmethylamino)-4-(pyrrolidin-1-yl)-N-[[4-(trifluoromethyl)phenyl]methyl]pyrimidine-5-carboxamide]
- KCNQ2 Current ([1]; at 20 μM): ++ (++ = 151-200%)

SMILES: O=C(NCc1ccc(C(F)(F)F)cc1)c1cnc(N2CCCC2)nc1C(F)(F)F [Example 19]
- KCNQ2 Current ([1]; at 5 μM): ++** (++ = 151-200%)
- decrease in field potential compared with vehicle ([2]; 1 mg/kg i.v., 60 minutes following i.v. injection, rat SSS model of migraine, p=0.005): 25.2%
- reduction in the SSS-stimulated trigeminal field response ([2]; i.v., rat, overall ANOVA p<0.001): dose-dependent reduction

SMILES: O=C(NCc1ccc(C(F)(F)F)cc1)c1cnc(NCc2ccc(Cl)cc2)nc1N1CCCC1 [Example 39, 2-[(4-Chlorophenyl)methylamino]-4-(pyrrolidin-1-yl)-N-[[4-(trifluoromethyl)phenyl]methyl]-pyrimidine-5-carboxamide]
- KCNQ2 Current ([1]; at 20 μM): + (+ = 125-150%)

SMILES: O=C(NCc1ccc(F)cc1)c1cnc(N2CCCC2)nc1C1CCCCC1 [Example 4, 4-Cyclohexyl-2-(pyrrolidin-1-yl)-N-[(4-fluorophenyl)methyl]pyrimidine-5-carboxamide]
- KCNQ2 Current ([1]; at 20 μM): +++ (+++ = >200%)

SMILES: O=C(NCc1ccc(F)cc1)c1cnc(N2CCOCC2)nc1C1CCCCC1 [Example 1, 4-Cyclohexyl-2-(morpholin-1-yl)-N-[(4-fluorophenyl)methyl]pyrimidine-5-carboxamide]
- KCNQ2 Current ([1]; at 20 μM): +++ (+++ = >200%)

SMILES: CCCc1nc(N2CCCC2)ncc1C(=O)NCc1ccc(F)cc1 [Example 9, 4-(1-Propyl)-2-(pyrrolidin-1-yl)-N-[(4-fluorophenyl)methyl]pyrimidine-5-carboxamide]
- KCNQ2 Current ([1]; at 20 μM): +++ (+++ = >200%)
